These results are taken from patent publication US9145414B2, “1,2,4-triazine-6-carboxamide derivative” (TAIHO PHARMACEUTICAL CO., LTD., priority 2011, dated 2015).

One assay has as its target human Syk protein (Homo sapiens (Human), UniProt P43405). The assay is described as follows: Syk kinase inhibition test. The conditions noted are these: Table 95; read-out: SYK inhibitory activity IC50. In kind it is biochemical. As for the experimental part: Finally, phosphorylated peptides and non-phosphorylated peptides were separated therebetween using LabChip™ 3000 system (Caliper Life Sciences, Inc., excitation wavelength: 488 nm, detection wavelength: 530 nm). Their respective amounts were measured, and the rate of phosphorylation reaction was then determined from the ratio between the amounts. The concentration at which the compound can inhibit 50% phosphorylation reaction is defined as an IC50 value (μM).
Also, known 1,2,4-triazine-6-carboxamide derivatives A, B, and C (WO2000/075113 (A: compound No. 121 and B: compound No. 154) and WO2000/076980 (C: compound No. 39)) were synthesized as control compounds. Their IC50 values (μM) were calculated in the same way as above and then compared with that of the compound of the present invention.

Assay [1] deals with SU-DHL-6 cells (diffuse large-cell lymphoma cell line). The assay is described as follows: Cell growth inhibition test. The conditions noted are these: SU-DHL-6 cells, 3 days culture, Table 96, read-out: Cell growth inhibition IC50. The assay is classed as cell-based. How it is done:
The compound of the present invention was serially diluted with dimethyl sulfoxide and then added to an RPMI1640 medium containing 10% FBS. Each resulting solution was added at a concentration of 100 μl/well to the preceding SU-DHL-6 cell culture plate (final concentration of the compound: 10, 3, 1, 0.3, 0.1, 0.03, 0.01, and 0.003 μM). The cells were cultured at 37° C. for 3 days in an incubator containing 5% CO2. The cells thus cultured were left at room temperature for 30 minutes and then centrifuged at 1500 rpm for 3 minutes using a centrifuge (Hitachi Koki Co., Ltd., Himac CF7D2). A 100 μl aliquot of the supernatant was removed from each well to allow 100 μl of the cell culture solution to remain therein. This 100 μl of the remaining cell culture solution was supplemented with an equal amount of CellTiter-Glo Luminescent Cell Viability Assay (Promega KK, Cat#: G7573), and the mixture was then shaken for 1 minute using a plate mixer. The reaction solution was left in the dark for 10 minutes. Then, luminescence intensity derived from live cells of each well was measured using a microplate reader (PerkinElmer Inc., ARVOsx). […] Likewise, the IC50 values (μM) of the control compounds were also calculated and then compared with that of the compound of the present invention. Rate of cell growth inhibition(%)=(C−T)/C×100 T: luminescence intensity (count per second) of a well supplemented with the test compound C: luminescence intensity (count per second) of a well non-supplemented with the test compound

Where two headings read alike, the source gives them in different places. Where only a bound is given, the exact number is not on record here.

The IC50 is the concentration that inhibits the measured activity by half. For the compound `Cn1ccc(-n2ccc3c(Nc4nc(N[C@@H]5CCCC[C@@H]5N)nnc4C(N)=O)cccc32)n1` [Example 25, 3-((1R,2S)-2-aminocyclohexylamino)-5-(1-(1-methyl-1H-pyrazol-3-yl)-1H-indol-4-ylamino)-1,2,4-triazine-6-carboxamide], the IC50 on human Syk protein amounted to 0.36 nM; in assay [1] (Homo sapiens, 72 h) it was 100 nM.
On to `NC(=O)c1nnc(N[C@@H]2CCCC[C@@H]2N)nc1Nc1cccc2c1ccn2C(F)F` [Example 26, 3-((1R,2S)-2-aminocyclohexylamino)-5-(1-(difluoromethyl)-1H-indol-4-ylamino)-1,2,4-triazine-6-carboxamide], for which the IC50 on human Syk protein came out at 0.22 nM; in assay [1] (Homo sapiens, 72 h) it was 41 nM.
With `Cn1cc2cc(Nc3nc(N[C@@H]4CCCC[C@@H]4N)nnc3C(N)=O)cc(-c3ccccc3)c2n1` [Example 65, 3-(((1R,2S)-2-aminocyclohexyl)amino)-5-((2-methyl-7-phenyl-2H-indazol-5-yl)amino)-1,2,4-triazine-6-carboxamide], the half-maximal inhibitory concentration (IC50) was 0.23 nM at human Syk protein and 24 nM in assay [1] (Homo sapiens, 72 h).
With `COC[C@H](N)[C@@H](C)Nc1nnc(C(N)=O)c(Nc2cc(C)c3nn(C(C)(C)C)cc3c2)n1` [Example 274], the half-maximal inhibitory concentration (IC50) on human Syk protein was 0.95 nM; in assay [1] (Homo sapiens, 72 h) it was 155 nM.
As for `Cc1cc(Nc2nc(N[C@@H]3CCCC[C@@H]3N)nnc2C(N)=O)c2ccn([C@H]3CC[C@H](O)CC3)c2c1` [Example 78], the IC50 stood at 0.53 nM at human Syk protein and 85 nM in assay [1] (Homo sapiens, 72 h).
In the same order, the values of `NC(=O)c1nnc(N[C@@H]2CCCC[C@@H]2N)nc1Nc1cccc2c1ccn2CCF` [Example 35, 3-((1R,2S)-2-aminocyclohexylamino)-5-(1-(2-fluoroethyl)-1H-indol-4-ylamino)-1,2,4-triazine-6-carboxamide] are 0.51 nM and 107 nM.
Take `Cc1cc(Nc2nc(N[C@@H]3CCOC[C@@H]3N)nnc2C(N)=O)c2ccn(C)c2c1` [Example 267]: the concentration for half-maximal inhibition (IC50) on human Syk protein is 0.41 nM; in assay [1] (Homo sapiens, 72 h) it was 128 nM.
As to `CCn1ncc2c(C)cc(Nc3nc(N[C@@H]4CCCC[C@@H]4N)nnc3C(N)=O)cc21` [Example 97, 3-(((1R,2S)-2-aminocyclohexyl)amino)-5-((1-ethyl-4-methyl-1H-indazol-6-yl)amino)-1,2,4-triazine-6-carboxamide], the IC50 on human Syk protein was 0.39 nM; in assay [1] (Homo sapiens, 72 h), 191 nM.
As for `Cc1cc(Nc2nc(N[C@@H]3CCOC[C@@H]3N)nnc2C(N)=O)cc2cn(C(C)(C)C)nc12` [Example 61, 3-(((3R,4R)-3-aminotetrahydro-2H-pyran-4-yl)amino)-5-((2-(tert-butyl)-7-methyl-2H-indazol-5-yl)amino)-1,2,4-triazine-6-carboxamide], the IC50 on human Syk protein was 0.37 nM; in assay [1] (Homo sapiens, 72 h) it was 164 nM.
Regarding `NC(=O)c1nnc(N[C@@H]2CCCC[C@@H]2N)nc1Nc1ccc2cnn(C(F)F)c2c1` [Example 165], the half-maximal inhibitory concentration (IC50) at human Syk protein is 0.36 nM; in assay [1] (Homo sapiens, 72 h) it was 177 nM.
As for `Cc1cccc(Nc2cc(NCCN(C)C)ccc2C(N)=O)c1` [C, reference compound], the IC50 at human Syk protein was 620 nM; in assay [1] it was above 10000 nM.
In the case of `Cc1cc(Nc2nc(N[C@@H]3CCCC[C@@H]3N)nnc2C(N)=O)cc2nn(C(F)F)cc12` [Example 265, 3-(((1R,2S)-2-aminocyclohexyl)amino)-5-((2-(difluoromethyl)-4-methyl-2H-indazol-6-yl)amino)-1,2,4-triazine-6-carboxamide], the IC50 is 0.5 nM on human Syk protein and 125 nM in assay [1] (Homo sapiens, 72 h).
With `NC(=O)c1nnc(N[C@@H]2CCCC[C@@H]2N)nc1Nc1cccc2c1ccn2CCO` [Example 93, 3-(((1R,2S)-2-aminocyclohexyl)amino)-5-((1-(2-hydroxyethyl)-1H-indol-4-yl)amino)-1,2,4-triazine-6-carboxamide], the IC50 came out at 0.67 nM at human Syk protein and 149 nM in assay [1] (Homo sapiens, 72 h).
For `Cn1ccc2c(Nc3nc(N[C@@H]4CCCC[C@@H]4N)nnc3C(N)=O)cccc21` [Example 3, 3-((1R,2S)-2-aminocyclohexylamino)-5-(1-methyl-H-indol-4-ylamino)-1,2,4-triazine-6-carboxamide], the IC50 at human Syk protein was 0.36 nM; in assay [1] (Homo sapiens, 72 h), 91 nM.
